# Reference: patent publication EP4553080A1, “NUCLEOSIDE DERIVATIVES AS ANTIVIRAL AGENTS AGAINST CORONAVIRUSES” (Ustav Organicke Chemie a Biochemie AV CR, v.v.i., priority 2023, dated 2025)
# Target: nsp14 methyltransferase from SARS-CoV-2 (Severe acute respiratory syndrome coronavirus 2, UniProt P0DTD1)
# Assay: Nsp14 MTase activity inhibition in vitro (EchoMS assay)
# Format: biochemical
# Conditions: recombinant nsp14 protein expressed in E. coli; dose-response curve
row,SMILES,IC50 [nM]
1,"Cc1ncc(-c2cn([C@@H]3O[C@H](CSCc4c(C)noc4-c4ccccc4)[C@@H](O)[C@H]3O)c3ncnc(N)c23)s1 [Compound 156, (2R,3R,4S,5S)-2-(4-Amino-5-(2-methylthiazol-5-yl)-7H-pyrrolo[2,3-d]pyrimidin-7-yl)-5-((((3-methyl-5-phenylisoxazol-4-yl)methyl)thio)methyl)tetrahydrofuran-3,4-diol]",10 to 30
2,Cc1noc(-c2ccccc2)c1CSC[C@H]1O[C@@H](n2cc(-c3ccc(N)cc3)c3c(N)ncnc32)[C@H](O)[C@@H]1O [Compound 157],30 to 100
3,"Cc1noc(-c2ccccc2)c1CSC[C@H]1O[C@@H](n2cc(C#Cc3ccc(C(N)=O)cc3)c3c(N)ncnc32)[C@H](O)[C@@H]1O [Compound 169b, 4-((4-Amino-7-((2R,3R,4S,5S)-3,4-dihydroxy-5-((((3-methyl-5-phenylisoxazol-4-yl)methyl)thio)methyl)tetrahydrofuran-2-yl)-7H-pyrrolo[2,3-d]pyrimidin-5-yl)ethynyl)benzamide]",30 to 100
4,"Cc1noc(-c2ccccc2)c1CSC[C@H]1O[C@@H](n2cc(C#Cc3cccnc3)c3c(N)ncnc32)[C@H](O)[C@@H]1O [Compound 170b, (2R,3R,4S,5S)-2-(4-Amino-5-(pyridin-3-ylethynyl)-7H-pyrrolo[2,3-d]pyrimidin-7-yl)-5-((((3-methyl-5-phenylisoxazol-4-yl)methyl)thio)methyl)tetrahydrofuran-3,4-diol]",10 to 30
5,"Cc1noc(-c2ccccc2)c1CSC[C@H]1O[C@@H](n2cc(C#Cc3ccccn3)c3c(N)ncnc32)[C@H](O)[C@@H]1O [Compound 171b, (2R,3R,4S,5S)-2-(4-Amino-5-(pyridin-2-ylethynyl)-7H-pyrrolo[2,3-d]pyrimidin-7-yl)-5-((((3-methyl-5-phenylisoxazol-4-yl)methyl)thio)methyl)tetrahydrofuran-3,4-diol]",10 to 30
6,Cc1noc(-c2ccccc2)c1CSC[C@H]1O[C@@H](n2cc(C#Cc3cncnc3)c3c(N)ncnc32)[C@H](O)[C@@H]1O [Compound 172b],10 to 30
7,Cc1noc(-c2ccccc2)c1CSC[C@H]1O[C@@H](n2cc(C#Cc3ccnnc3)c3c(N)ncnc32)[C@H](O)[C@@H]1O [Compound 173b],10 to 30
8,"Cc1noc(-c2ccccc2)c1CSC[C@H]1O[C@@H](n2cc(C#Cc3cnc(N)nc3)c3c(N)ncnc32)[C@H](O)[C@@H]1O [Compound 174b, (2R,3R,4S,5S)-2-(4-Amino-5-((2-aminopyrimidin-5-yl)ethynyl)-7H-pyrrolo[2,3-d]pyrimidin-7-yl)-5-((((3-methyl-5-phenylisoxazol-4-yl)methyl)thio)methyl)tetrahydrofuran-3,4-diol]",30 to 100
9,"Cc1noc(-c2ccccc2)c1CSC[C@H]1O[C@@H](n2cc(C#Cc3cccc4ccccc34)c3c(N)ncnc32)[C@H](O)[C@@H]1O [Compound 175b, (2R,3R,4S,5S)-2-(4-Amino-5-(naphthalen-1-ylethynyl)-7H-pyrrolo[2,3-d]pyrimidin-7-yl)-5-((((3-methyl-5-phenylisoxazol-4-yl)methyl)thio)methyl)tetrahydrofuran-3,4-diol]",500 to 2000
10,"Cc1noc(-c2ccccc2)c1CSC[C@H]1O[C@@H](n2cc(C#Cc3cnc4ccccc4c3)c3c(N)ncnc32)[C@H](O)[C@@H]1O [Compound 176b, (2R,3R,4S,5S)-2-(4-Amino-5-(quinolin-3-ylethynyl)-7H-pyrrolo[2,3-d]pyrimidin-7-yl)-5-((((3-methyl-5-phenylisoxazol-4-yl)methyl)thio)methyl)tetrahydrofuran-3,4-diol]",100 to 500
11,"Cc1noc(-c2ccccc2)c1CSC[C@H]1O[C@@H](n2cc(C#Cc3cnc4ccccc4n3)c3c(N)ncnc32)[C@H](O)[C@@H]1O [Compound 177b, (2R,3R,4S,5S)-2-(4-Amino-5-(quinoxalin-2-ylethynyl)-7H-pyrrolo[2,3-d]pyrimidin-7-yl)-5-((((3-methyl-5-phenylisoxazol-4-yl)methyl)thio)methyl)tetrahydrofuran-3,4-diol]",30 to 100
12,"Cc1noc(-c2ccccc2)c1CSC[C@H]1O[C@@H](n2cc(C#Cc3ncc[nH]3)c3c(N)ncnc32)[C@H](O)[C@@H]1O [Compound 178b, (2R,3R,4S,5S)-2-(5-((1H-Imidazol-2-yl)ethynyl)-4-amino-7H-pyrrolo[2,3-d]pyrimidin-7-yl)-5-((((3-methyl-5-phenylisoxazol-4-yl)methyl)thio)methyl)tetrahydrofuran-3,4-diol]",30 to 100
13,"Cc1noc(-c2ccccc2)c1CSC[C@H]1O[C@@H](n2cc(C#Cc3nc4ccccc4[nH]3)c3c(N)ncnc32)[C@H](O)[C@@H]1O [Compound 179b, (2R,3R,4S,5S)-2-(5-((1H-Benzo[d]imidazol-2-yl)ethynyl)-4-amino-7H-pyrrolo[2,3-d]pyrimidin-7-yl)-5-((((3-methyl-5-phenylisoxazol-4-yl)methyl)thio)methyl)tetrahydrofiiran-3,4-diol]",100 to 500
14,"Cc1noc(-c2ccccc2)c1CSC[C@H]1O[C@@H](n2cc(C#Cc3ccccc3)c3c(N)ncnc32)[C@H](O)[C@@H]1O [Compound 180, (2R,3R,4S,5S)-2-(4-Amino-5-(phenylethynyl)-7H-pyrrolo[2,3-d]pyrimidin-7-yl)-5-((((3-methyl-5-phenylisoxazol-4-yl)methyl)thio)methyl)tetrahydrofuran-3,4-diol]",30 to 100
15,"Cc1noc(-c2ccccc2)c1CSC[C@H]1O[C@@H](n2cc(/C=C/c3ccccc3)c3c(N)ncnc32)[C@H](O)[C@@H]1O [Compound 181b, (2R,3R,4S,5S)-2-(4-Amino-5-((E)-styryl)-7H-pyrrolo[2,3-d]pyrimidin-7-yl)-5-((((3-methyl-5-phenylisoxazol-4-yl)methyl)thio)methyl)tetrahydrofuran-3,4-diol]",100 to 500
16,"COc1ccc(/C=C/c2cn([C@@H]3O[C@H](CSCc4c(C)noc4-c4ccccc4)[C@@H](O)[C@H]3O)c3ncnc(N)c23)cc1 [Compound 182b, (2R,3R,4S,5S)-2-(4-Amino-5-((E)-4-methoxystyryl)-7H-pyrrolo[2,3-d]pyrimidin-7-yl)-5-((((3-methyl-5-phenylisoxazol-4-yl)methyl)thio)methyl)tetrahydrofuran-3,4-diol]",30 to 100
17,"Cc1noc(-c2ccccc2)c1CSC[C@H]1O[C@@H](n2cc(CCc3cncnc3)c3c(N)ncnc32)[C@H](O)[C@@H]1O [Compound 183, (2R,3R,4S,5S)-2-(4-Amino-5-(2-(pyrimidin-5-yl)ethyl)-7H-pyrrolo[2,3-d]pyrimidin-7-yl)-5-((((3-methyl-5-phenylisoxazol-4-yl)methyl)thio)methyl)tetrahydrofuran-3,4-diol]",30 to 100
18,"Cc1noc(-c2ccccc2)c1CSC[C@H]1O[C@@H](n2cc(CCc3ccccc3)c3c(N)ncnc32)[C@H](O)[C@@H]1O [Compound 184, (2R,3R,4S,5S)-2-(4-Amino-5-phenethyl-7H-pyrrolo[2,3-d]pyrimidin-7-yl)-5-((((3-methyl-5-phenylisoxazol-4-yl)methyl)thio)methyl)tetrahydrofuran-3,4-diol]",100 to 500
19,"Cc1noc(-c2ccccc2)c1CSC[C@H]1O[C@@H](n2cc(Cc3ccccc3)c3c(N)ncnc32)[C@H](O)[C@@H]1O [Compound 185b, (2R,3R,4S,5S)-2-(4-Amino-5-benzyl-7H-pyrrolo[2,3-d]pyrimidin-7-yl)-5-((((3-methyl-5-phenylisoxazol-4-yl)methyl)thio)methyl)tetrahydrofuran-3,4-diol]",100 to 500
